In patent publication US8034353B2, “Peptide vaccine for inducing the production of anti-amyloid β-peptide antibody” (priority 2006, dated 2011):
Where two headings read alike, the source gives them in different places.

Legend:
T-cell [1] = type: cell-based, mice
T-cell [2] = type: cell-based, human
Aβ (SEQ ID NO:2) = assay: Anti-Aβ antibody titer in serum of transnasally vaccinated mice, ELISA (Experiment 1); type: in vivo, BALB/c female mice; conditions: BALB/c mice, transnasal 50 μg/mouse/once, four times at two weeks interval, serum one week after last administration
Description: The results are in Table 1.

Row | Substance | Induction of blastogenesis of the T-cell (T-cell [1]) | Induction of blastogenesis of the T-cell (T-cell [2]) | Antibody titer Anti-Aβ antibody (Aβ (SEQ ID NO:2))
1 | AYNFVESIINLFQVVHNSYN (diphtheria toxoid (partial sequence)) [DTL] | inducing the blastogenesis of the T-cell | inducing the blastogenesis of the T-cell | –
2 | QYIVNEDKFQILYNSIMYGF (tetanus toxoid (partial sequence)) [TetT3L] | inducing the blastogenesis of the T-cell | inducing the blastogenesis of the T-cell | –
3 | RGD-Gag-KK-Aβ(1-11): RGD motif, Gag T-cell epitope (HIV-1 Gag 298-312), KK linker, Aβ(1-11) B-cell epitope (RGDKRWIILGLNKIVRMYKKDAEFRHDSGYE; peptide for the production of anti-amyloid beta antibody) | – | – | 14.9
4 | RGD-Gag-KK-Aβ(1-13): RGD motif, Gag T-cell epitope (HIV-1 Gag 298-312), KK linker, Aβ(1-13) B-cell epitope (RGDKRWIILGLNKIVRMYKKDAEFRHDSGYEVH; peptide for the production of anti-amyloid beta antibody) | – | – | 32
5 | RGD-Gag-KK-Aβ(3-11): RGD motif, Gag T-cell epitope (HIV-1 Gag 298-312), KK linker, Aβ(3-11) B-cell epitope (RGDKRWIILGLNKIVRMYKKEFRHDSGYE; peptide for the production of anti-amyloid beta antibody) | – | – | 22.6
